Measurements: patent US8367713B2, “Inhibition and dispersion of bacterial biofilms with imidazole-triazole derivatives” (North Carolina State University, priority 2008, dated 2013)
Structures can show the parent of a compound that is named as a salt.

How the values were obtained:
MRSA = experiment: Biofilm inhibition at 100 μM, MRSA; format: cell-based; details: Staphylococcus aureus, read-out: MRSA % Inhibition
Method: (§1) Procedure to Determine the Inhibitory Effect of Test Compounds on E. faecium, MRSA, S. epidermidis, PAO1, PA14, E. Coli and MDRAB Biofilm Formation: Inhibition assays were performed by taking an overnight culture of bacterial strain and subculturing it at an OD600 of 0.01 into the necessary media (brain heart infusion for E. faecium, tryptic soy broth with a 0.5% glucose supplement (TSBG) for MRSA, Luria-Bertani (LB) media for MDRAB, Luria-Bertani media without NaCl (LBNS) for PAO1 and PA14, Luria-Bertani (LB) media for E. coli and tryptic soy broth with a 0.5% glucose supplement and a 3.0% NaCl supplement (TGN) for S. epidermidis. Stock solutions of predetermined concentrations of the test compound were then made in the necessary media. These stock solutions were aliquoted (100 μL) into the wells of the 96-well PVC microtiter plate. Sample plates were then wrapped in GLAD Press n′ Seal® followed by an incubation under stationary conditions for 24 h at 37° C. After incubation, the media was discarded from the wells and the plates were washed thoroughly with water. Plates were then stained with 100 μL of 0.1% solution of crystal violet (CV) and then incubated at ambient temperature for 30 min. Plates were washed with water again and the remaining stain was solubilized with 200 μL of 95% ethanol. A sample of 125 μL of solubilized CV stain from each well was transferred to the corresponding wells of a polystyrene microtiter dish. Biofilm inhibition was quantitated by measuring the OD540 of each well in which a negative control lane wherein no biofilm was formed served as a background and was subtracted out.
Biofilm inhibition has been tested for the following compounds, each of which was tested at a concentration of 100 μM.

E. coli = experiment: Biofilm inhibition at 100 μM, E. coli; format: cell-based; details: Escherichia coli
Method: as §1, with “Plates were washed with water again and the remaining stain was solubilized with 200 μL of 95% ethanol. A sample of 125 μL of solubilized CV stain from each well was transferred to the corresponding wells of a polystyrene microtiter dish.” left out, “out. […]” for “out.”

[1] = tested on: A. baumannii planktonic growth; experiment: Planktonic growth curves and colony counts, A. baumannii; format: cell-based, Acinetobacter baumannii; details: FIGS. 3A, 4A
Method: (§2) The OD600 was recorded at 1, 3, 4, 5, 6 and 24 hours.
(§3) General Colony Count Procedure for A. baumannii, P. aeruginosa, B. bronchiseptica and S. aeureus: Colony counts were performed by incubating either bacterial strain in the presence and absence of the test compound at 37° C. in culture tubes until the sample with the absence of the test compound reached an OD600 of 0.40 from a starting OD600 of 0.01. This typically took three to four hours. Once the OD600 of approximately 0.40 was observed, 100 μL were taken from each culture tube from which serial dilutions were made. Then, 10 μL were removed from each serial dilution and plated out on a square gridded petri-dish followed by 16 hours of incubation at 37° C. period (48 hours for B. bronchiseptica) to grow countable colonies. Viable bacteria were quantified through employment of the track-dilution method (Jett et al., Bio Techniques. 1997, 23, 648-650).

[2] = tested on: pre-formed A. baumannii biofilms; experiment: Static bacterial biofilm dispersion assay, A. baumannii; format: cell-based; details: Acinetobacter baumannii
Method: (§4) General Static Bacterial Biofilm Dispersion Assay Procedure for A. baumannii, P. aeruginosa and S. aureus: Dispersion assays were performed by taking an overnight culture of bacterial strain and subculturing it at an OD600 of 0.01 into the necessary growth liquid medium. The resulting bacterial suspension was aliquoted (100 μL) into the wells of a 96-well PVC microtiter plate. Plates were then wrapped in GLAD Press n′ Seal® followed by an incubation under stationary conditions at an ambient temperature. After 24 hours, the media was discarded from the wells and the plates were washed thoroughly with tap water. Predetermined concentrations of the compound were then made in the same medium used to initially grow the biofilms and then aliquoted (100 μL) into the wells of the 96-well PVC microtiter plate with the established biofilms. Plates were then wrapped in GLAD Press n′ Seal® and incubated under stationary conditions at 37° C. After 24 hours, the media was discarded from the wells and the plates were washed thoroughly with tap water. Plates were then stained with 100 μL of 0.1% solution of crystal violet (CV) and then incubated at room temperature for 30 minutes. Plates were then washed with tap water again and the remaining stain was solubilized with 200 μL of 95% ethanol. Biofilm dispersion was quantitated by measuring the OD540 for each well by transferring 125 μL of the solubilized CV stain into a polystyrene microtiter dish for analysis.

A. baumannii biofilms = experiment: Static bacterial biofilm inhibition assay (crystal violet), A. baumannii; format: cell-based, Acinetobacter baumannii; details: Acinetobacter baumannii, read-out: IC50 of biofilm inhibition, A. baumannii
Method: (§5) Each 2-AIT conjugate was initially screened at 300 μM for their ability to inhibit P. aeruginosa PAO1 and PA14 biofilms, A. baumannii biofilms and B. bronchiseptica Rb50 biofilms using a crystal violet reporter assay (G. A. O'Toole, R. Kolter, Molecular Microbiology 1998, 2, 295-304). […] This is an order of magnitude increase in activity when compared to DHS (J. J. Richards, R. W. Huigens, T. E. Ballard, A. Basso, J. Cavanagh, C. Melander, Chemical Communications 2008, 14, 1698-1700). […] 6 also dispersed pre-formed A. baumanni biofilms with an EC50 of 400 μM (FIG. 2A).
(§6) General Static Bacterial Biofilm Inhibition Assay Procedure for A. baumannii, P. aeruginosa, B. bronchiseptica and S. aureus: Biofilm inhibition assays were performed by taking an overnight culture of bacterial strain and subculturing it at an OD600 of 0.01 into the necessary growth liquid medium (LB for A. baumannii, LBNS for P. aeruginosa, Stainer Scholte medium that was supplemented with […] of 100× nutrient complex for B. bronchiseptica and TSBG for S. aureus) for the strain. The compound being tested was then added at a predetermined concentration and then aliquoted (100 μL) into the wells of a 96-well PVC microtiter plate (Wells not used for samples are filled with 100 μL of de-ionized water). Plates were then wrapped in GLAD Press n′ Seal® and incubated under stationary conditions at 37° C. After 24 hours, the media was discarded from the wells and the plates were washed thoroughly with tap water. Plates were then stained with 100 μL of 0.1% solution of crystal violet (CV) and then incubated at an ambient temperature for 30 minutes. Sample plates were then washed with tap water again and the remaining stain was solubilized with 200 μl, of 95% ethanol. Biofilm inhibition was quantitated by measuring the OD540 for each well by transferring 125 μL of the solubilized CV stain into a polystyrene microtiter dish for analysis.

[3] = tested on: pre-formed P. aeruginosa PAO1 biofilms; experiment: Static bacterial biofilm dispersion assay, PAO1; format: cell-based; details: Pseudomonas aeruginosa
Method: as §4

[4] = tested on: B. bronchiseptica Rb50 biofilms; experiment: Static bacterial biofilm inhibition assay (crystal violet), Rb50; format: cell-based; details: Bordetella bronchiseptica, RB50BIOFILMS
Method: as §5, §6

[5] = tested on: pre-formed S. aureus biofilms; experiment: Static bacterial biofilm dispersion assay, S. aureus; format: cell-based; details: Staphylococcus aureus
Method: as §4

[6] = tested on: P. aeruginosa PAO1 biofilms; experiment: Static bacterial biofilm inhibition assay (crystal violet), PAO1; format: cell-based; details: Pseudomonas aeruginosa
Method: as §5, §6

[7] = tested on: A. baumannii, PAO1, PA14, Rb50, S. aureus (each bacterial strain); experiment: Planktonic growth curves and colony counts, each bacterial strain; format: cell-based; details: each bacterial strain grown in the presence of compound
Method: as §2, §3

[8] = tested on: pre-formed B. bronchiseptica Rb50 biofilms; experiment: Static bacterial biofilm dispersion assay, Rb50; format: cell-based; details: Bordetella bronchiseptica
Method: as §4
General Static Bacterial Biofilm Dispersion Assay Procedure for B. bronchiseptica: This procedure is identical to the general dispersion procedure described above except that initial biofilm formation in the absence of the test compound was carried out at 37° C.

[9] = tested on: pre-formed P. aeruginosa PA14 biofilms; experiment: Static bacterial biofilm dispersion assay, PA14; format: cell-based; details: Pseudomonas aeruginosa
Method: as §4

[10] = tested on: Staphylococcus aureus biofilm; experiment: Static bacterial biofilm inhibition assay (crystal violet), S. aureus; format: cell-based
Method: as §6

[11] = tested on: P. aeruginosa PA14 biofilms; experiment: Static bacterial biofilm inhibition assay (crystal violet), PA14; format: cell-based; details: Pseudomonas aeruginosa; P. aeruginosa PA14
Method: as §5, §6

SMILES: CCCCCCCCCCNC(=O)Cn1cc(CCCc2c[nH]c(N)n2)nn1 [2-{4-[3-(2-amino-1H-imidazol-4-yl)-propyl]-[1,2,3]triazol-1-yl}-N-decyl-acetamide hydrochloride]
- inhibition at 100 µM (MRSA): 99 ± 1%
- inhibition at 100 µM (E. coli): 62.7 ± 0.4%

SMILES: CCCCCCCCCCCCCCNC(=O)Cn1cc(CCCc2c[nH]c(N)n2)nn1 [2-{4-[3-(2-amino-1H-imidazol-4-yl)-propyl]-[1,2,3]triazol-1-yl}-N-tetradecyl-acetamide hydrochloride]
- inhibition at 100 µM (MRSA): 90.8 ± 8%
- inhibition at 100 µM (E. coli): 35.6 ± 0.6%

SMILES: C/C(=C\c1ccccc1)Cn1cc(CCCc2c[nH]c(N)n2)nn1 [Compound 6, 5-{3-[1-(2-Methyl-3-phenyl-allyl)-1H-[1,2,3]triazol-4-yl]-propyl}-1H-imidazol-2-ylamine hydrochloride]
- effect on planktonic growth (growth curves and colony counts) [1]: no effect on planktonic growth
- EC50 [2]: 400 µM
- IC50 (A. baumannii biofilms): 12 µM

SMILES: C/C(=C\c1ccccc1)Cn1cc(CCCCCCc2c[nH]c(N)n2)nn1 [Compound 12, 4-{6-[1-(2-Methyl-3-phenyl-allyl)-1H-[1,2,3]triazol-4-yl]-hexyl}-1H-imidazol-2-ylamine hydrochloride]
- EC50 [3]: 51 µM
- IC50 [4]: 70 µM
- EC50 [5]: 37 µM
- IC50 [6]: 2.7 µM
- bactericidal / microbicidal activity (colony counts and growth curves) [7]: not due to microbicidal activity
- EC50 [8]: 75 µM
- EC50 [9]: 48 µM
- IC50 [10]: 4.6 µM
- IC50 [11]: 22 µM
- EC50 [2]: 36 µM
- IC50 (A. baumannii biofilms): 6.8 µM
